Literature values, collected in patent US20030232858A1, “Use of hydroxyeicosatetraenoic acid compounds to treat dry mouth” (priority 2002, published 2003).

SMILES: CCCCC[C@H](O)/C=C/C=C\C/C=C\C/C=C\CCCC(=O)O [15-HETE, 15-Hydroxyeicosatetraenoic acid]
- anti-inflammatory properties in colitis (colitis): minor anti-inflammatory properties
- effects on leukotriene B4 production or its activity (leukotriene B4): inhibitory effects
- effect on psoriasis (psoriatic skin lesions; injected into psoriatic skin lesions): can improve psoriasis
- concentration required to cause a clinical effect (psoriatic skin lesions; intralesional injection, 0.1 ml): 10 µmol/L
- amount required to cause a clinical effect (psoriatic skin lesions; intralesional injection, 0.1 ml of 10 μmol/L): 300 ng
